Data taken from patent US6011000A, “Compositions for the treatment of blood disorders” (priority 1995, dated 2000).

How the values were obtained:
Friend leukemia cells = settings: cited from earlier work
[1] = system: human fetal (γ) globin gene; settings: cited from earlier work
fetal globin = settings: pharmacological doses, phenylhydrazine-anemic chickens; cited from earlier work
[2] = system: fetal globin expression in K562 human erythroleukemia cells; settings: cited from earlier work
histone acetylation = settings: cited from earlier work
anemic baboon = assay: In vivo reticulocyte proliferation, globin expression and blood counts in anemic (phlebotomized) baboons; settings: for Fetal reticulocytes: baseline 4%
Procedure: Experiments were performed to determine if administration of the chemical compositions could induce fetal globin gene expression in an in vivo model similar to humans (S. P. Perrine et al., Brit. J. Haematol. 88:555-61, 1994). Briefly, chemicals were prepared as sterile pharmaceutical solutions in pH adjusted sterile water. A variety of chemical compositions were administered sequentially to some baboons. After administration of one compound, a wash-out period with no compound administration was maintained until reticulocytes returned to base line prior to administration of the next compound. This was done, at least partly, to compare the magnitude of response which occurred within the same individual animal to different compounds.
Briefly, juvenile female baboons (2 years old) were catheterized with arterial and venous catheters and phlebotomized gradually every day to maintain a moderate anemia of 7.0 to 7.5 grams hemoglobin/dl. Fetal reticulocytes, the newly produced red blood cells containing fetal globin, were assayed using a monoclonal antibody against fetal globin (HbF) as described by G. Dover et al. (Blood 67:735-38, 1986). Briefly, blood was stained with two antibodies, one specific for reticulocytes and another against fetal globin protein. The amount of antibody bound cells was determined by FACS analysis. Globin chain synthesis was assayed as described by J. B. Clegg et al. (J. Mol. Biol. 19:91-108, 1966). Briefly, reticulocytes were radio-labeled with ^3 H-leucine which was incorporated in equal proportions into actively synthesized globin chains. After incubation in leucine-free media, cells were washed, and globin proteins were separated and purified by column chromatography. Radioactivity incorporated into each peak is compared and the ratios of gamma to gamma plus beta globin calculated. Each animal served as its own control with baseline monitoring assays performed for 4-6 weeks before any drug was administered. Phlebotomy was continued daily, so that peripheral HbF levels in the animals were not considered to be accurate over the short treatment time-frames and were not monitored. Safety monitoring was performed by frequent physical examinations, quantitation of food eaten, activity and frequent chemistry and hematology monitoring. Complete blood counts were assayed before, during and after treatment. Results presented were not adjusted to account for the daily phlebotomy.

[3] = system: gamma globin (erythroblasts of sickle cell anemia patients); assay: Induction of fetal globin in erythroblasts by steel factor; assay type: cell-based, human; settings: 100 ng/ml
Procedure: Peripheral blood was obtained from patients with sickle cell anemia. Mononuclear cells were isolated on Ficoll-Hypaque gradients. One culture was treated with 100 ng/ml steel factor for 13 days and compared with an untreated control. […] A second culture was incubated overnight with an identical dose of steel factor plus ^3 H-leucine. Amounts of labeled globin proteins synthesized in untreated (FIG. 5A) and steel factor treated (FIG. 5B) cells were determined by autoradiography and quantitated (scanned) by laser densitometry.

[4] = system: fetal globin synthesis in erythroid progenitors; settings: cited from earlier work
[5] = 25 and 100 μg/kg s.c., undetectable before treatment

Row | Molecule | hemoglobin synthesis (Friend leukemia cells) | transcription of the human fetal (γ) globin gene [1] | expression of fetal globin (fetal globin) | increase of fetal globin expression [2] | level of histone acetylation (histone acetylation) | Fetal reticulocytes (anemic baboon; 25 μg/kg s.c. daily, 4 days (FIG. 10)) | Fetal reticulocytes (anemic baboon; 100 μg/kg s.c., four days, after wash-out) | rise in numbers of newly-formed blood cells producing fetal globin (anemic baboon; 25 and 100 μg/kg s.c.) | total increase of gamma globin expression in the bone marrow (anemic baboon; 25 and 100 μg/kg s.c.) | fetal globin chain protein (anemic baboon; [5]) | rise in fetal globin chain protein (anemic baboon; [5]) | mean increase in gamma globin expression ([3]; 13 days, vs untreated control) | gamma globin expression in BFU-e cells ([3]; 13 days, from 14%) | globin proteins included in the increase ([3]; overnight) | Gamma globin expression ([3]; overnight + 3H-leucine, untreated 17.6%) | fetal globin synthesis [4]
1 | CCCC(=O)O [butyric acid] | induced hemoglobin synthesis | accurately and specifically stimulated transcription of the human fetal (γ) globin gene | greatly increased expression of fetal globin | much less of an effect | may act by increasing the level of histone acetylation | – | – | – | – | – | – | – | – | – | – | –
2 | steel factor: hematopoietic factor, steel factor, also referred to as kit ligand, mast cell growth factor and stem cell factor | – | – | – | – | – | 15% | 12% | 300-500% | 9 fold | about 3 % of total non-alpha globin | 3 fold | 16.1% | 23.3% | included both G-γ and A-γ globin proteins | 43.3% | capable of influencing fetal globin synthesis in erythroid progenitors
